Assay results reported in US8633168B2, “Inhibitors of S-adenosyl-L-methionine decarboxylase” (Genzyme Corporation, priority 2007, dated 2014).
Where two headings read alike, the source gives them in different places.

Legend:
T. brucei SAM DC = target: T1, T. brucei SAM DC (Trypanosoma brucei brucei, UniProt P50244); assay: SAMDC enzyme inhibition assay (14CO2 release from 14C-AdoMet); type: biochemical; conditions: Table 1; read-out: kinact/Ki^app against SAM DC enzyme by SW (converted)
T1 construct: made in house
T1 sequence (P50244 86-370 limits assumed): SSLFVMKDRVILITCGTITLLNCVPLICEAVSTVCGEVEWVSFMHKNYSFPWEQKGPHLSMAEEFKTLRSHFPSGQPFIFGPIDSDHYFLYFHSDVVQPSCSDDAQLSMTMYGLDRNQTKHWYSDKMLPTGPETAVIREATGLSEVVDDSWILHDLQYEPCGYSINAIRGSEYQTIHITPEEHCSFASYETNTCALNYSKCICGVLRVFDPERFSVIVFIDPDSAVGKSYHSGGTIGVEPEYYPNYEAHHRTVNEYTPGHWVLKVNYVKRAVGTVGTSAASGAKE
Experimental: Steady state kinetics were performed as described (Kinch, L. N., J. R. Scott, B. Ullman, and M. A. Phillips. “Cloning and Kinetic Characterization of the Trypanosoma Cruzi S-Adenosylmethionine Decarboxylase.” Mol Biochem Parasitol 101, no. 1-2 (1999): 1-11. Beswick, T. C., E. K. Willert, and M. A. Phillips. “Mechanisms of Allosteric Regulation of Trypanosoma Cruzi S-Adenosylmethionine Decarboxylase.” Biochemistry 45, no. 25 (2006): 7797-807.). This assay measures the amount of ^14CO2 elaborated by enzymatic cleavage of ^14C-AdoMet. Reactions were carried out in assay buffer (100 mM Hepes pH 8.0, 50 mM NaCl, and 1 mM DTT) using the AdoMetDC/AdoMetDC Prozyme complex at ^14C-AdoMet concentrations of 10-160 μM with saturating putrescine (5 mM) (Willert E K, Phillips M A, 2007. “Allosteric regulation of an essential trypanosome polyamine biosynthetic enzyme by a catalytically dead homolog”. Proc Natl Acad Sci USA 104: 8275-8280). The reaction components were added to a test tube on ice to a total final volume of 100 μl. The reaction was initiated by the addition of enzyme (1-4 μM for T. brucei SAM DC), and a piece of filter paper soaked in saturated barium hydroxide was hung on the side of the test tube, which was then capped with a rubber stopper. Reactions were incubated at 37° C. in a water bath for 5-40 minutes. The assay was stopped by the addition of 200 μl 6 M HCl. The quenched reaction was kept at 37° C. for at least 30 minutes to allow for evolution of the CO2 from the solution. The filter paper was then added to 5 ml of scintillation fluid and counted. Test compounds were assessed over a range of 4 concentrations. Kinetic and regression analysis were performed using GraphPad Prism™.
Purified, recombinant T. brucei SAM-decarboxylase and its prozyme are prepared and assayed in the laboratory of Dr. Phillips according to procedures from that lab. Kinch L N, Scott J R, Ullman B, Phillips M A, “Cloning and kinetic characterization of the Trypanosoma cruzi S-adenosylmethionine decarboxylase,” Mol Biochem Parasitol 101: 1-11. Willert E K, Fitzpatrick R, Phillips M A, 2007 (1999). Briefly, the assay employs ^14C-labelled S-adenosyl methionine (^14C-AdoMet). Reactions are carried out in buffer (100 mM Hepes pH 8.0, 50 mM NaCl, and 5 mM DTT) at ^14C-AdoMet concentrations of 10-160 μM with saturating putrescine (5 mM). The reaction components are added to a test tube on ice to a total final volume of 100 μl. The reaction is initiated by the addition of enzyme (1-4 μM for T. brucei SAM DC), and a piece of filter paper soaked in saturated barium hydroxide is hung on the side of the test tube, which is then capped with a rubber stopper. Reactions are incubated at 37° C. in a water bath for 5-40 minutes. The assay is stopped by the addition of 200 μl 6 M HCl. The quenched reaction is kept at 37° C. for at least 30 minutes to allow for evolution of the CO2 from the solution. The filter paper is then added to 5 ml of scintillation fluid and counted. Test compounds were assessed over a range of 4 concentrations. Kinetic and regression analysis are performed using GraphPad Prism.™ Results of this test are exemplified in FIG. 4.

[1] = Permeability through lipid soaked artificial membrane; type: in vitro ADME; conditions: for Perm.: Table 2; for Papp: PAMPA
Experimental: A stock solution for each test compound was prepared at 10 mM in DMSO. These were diluted into phosphate buffer and placed on one side (donor) of a two chamber microtiter plate separated by a lipid soaked membrane. With time, the compound passively diffused across the membrane barrier and the concentration in the second chamber (acceptor) increases. At the end of the experiment, drug concentration was determined in both the donor and acceptor solutions by UV absorbance. The permeability was calculated from the change in concentration, surface area, and incubation time.

CYP2D6 = CYP2D6 (Homo sapiens, UniProt P10635); assay: Cytochrome P450 inhibition, CYP2D6
Chain of CYP2D6 (P10635 whole entry): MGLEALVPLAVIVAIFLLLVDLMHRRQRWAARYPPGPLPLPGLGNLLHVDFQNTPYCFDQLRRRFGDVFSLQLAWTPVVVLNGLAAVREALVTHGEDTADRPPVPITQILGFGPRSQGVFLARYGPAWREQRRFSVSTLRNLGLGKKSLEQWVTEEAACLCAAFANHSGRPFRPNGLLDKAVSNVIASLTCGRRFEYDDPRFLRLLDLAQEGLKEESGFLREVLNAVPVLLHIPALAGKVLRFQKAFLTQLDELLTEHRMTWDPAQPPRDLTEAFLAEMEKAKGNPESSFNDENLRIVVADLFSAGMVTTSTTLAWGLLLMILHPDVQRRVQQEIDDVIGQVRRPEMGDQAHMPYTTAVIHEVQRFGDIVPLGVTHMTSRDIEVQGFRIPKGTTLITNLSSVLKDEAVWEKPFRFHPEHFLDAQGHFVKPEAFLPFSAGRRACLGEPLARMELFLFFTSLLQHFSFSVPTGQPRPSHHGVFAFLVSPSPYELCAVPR
Text: (§1) This cytochrome P450 high throughput IC50 inhibition assay is utilized for screening potential inhibitors of the 5 major human CYP isozyme catalytic activities (CYP3A4, 2D6, 2C9, 2C19, and 1A2).

CYP1A2 = target: T2, CYP1A2 (Homo sapiens, UniProt P05177); assay: Cytochrome P450 inhibition, CYP1A2
T2 sequence (P05177 1-516): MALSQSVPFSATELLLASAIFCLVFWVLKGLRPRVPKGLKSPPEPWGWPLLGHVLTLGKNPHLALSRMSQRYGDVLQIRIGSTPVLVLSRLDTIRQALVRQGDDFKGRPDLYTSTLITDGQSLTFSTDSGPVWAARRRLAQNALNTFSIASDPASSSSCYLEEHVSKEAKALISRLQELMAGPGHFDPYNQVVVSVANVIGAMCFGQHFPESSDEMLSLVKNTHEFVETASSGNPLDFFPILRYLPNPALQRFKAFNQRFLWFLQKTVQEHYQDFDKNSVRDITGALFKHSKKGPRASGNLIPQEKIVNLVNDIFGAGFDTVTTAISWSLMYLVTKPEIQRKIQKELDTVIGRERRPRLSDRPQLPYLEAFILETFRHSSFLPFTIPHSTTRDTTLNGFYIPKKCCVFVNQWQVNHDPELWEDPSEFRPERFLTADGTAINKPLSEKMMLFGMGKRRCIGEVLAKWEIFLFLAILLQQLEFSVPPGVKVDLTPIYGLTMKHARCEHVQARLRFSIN
Text: as §1

[2] = human, probe fluorometric substrates (not named)
[3] = read-out: CYP IC50 2D6, Example 12 chart
[4] = read-out: CYP IC50 1A2, Example 12 chart

## CN(C/C=C\CN)C[C@H]1O[C@@H](n2cnc3c(N)ncnc32)[C@H](F)[C@@H]1O (stereo in doubt) [Compound 1]
T. brucei SAM DC
  kinact/KI: 3200 M⁻¹ s⁻¹
[1]
  Perm.: 0.00 10-6 cm/s
CYP2D6; [2]
  IC50: > 5 µM
CYP1A2; [2]
  IC50: > 5 µM

## Cc1nc2c(N)ncnc2n1[C@@H]1O[C@H](CN(C)C/C=C\CN)[C@@H](O)[C@H]1O (stereo in doubt) [Compound 4]
T. brucei SAM DC
  kinact/KI: 130000 M⁻¹ s⁻¹
[1]; Example 12 chart
  Papp: 0.22 ×10⁻⁶ cm/s
[1]
  Perm.: 0.22 10-6 cm/s
CYP2D6
  IC50: > 5 µM
CYP2D6; [3]
  IC50: > 5 µM
CYP1A2
  IC50: > 5 µM
CYP1A2; [4]
  IC50: > 5 µM

## CN(C/C=C\CN)CC1OC(n2cnc3c(N)ncnc32)C(O)C1O (stereo not shown) [MDL-73811, reference compound]
T. brucei SAM DC
  kinact/KI: 24900 M⁻¹ s⁻¹
[1]; Example 12 chart
  Papp: 1.1 ×10⁻⁶ cm/s
[1]
  Perm.: 0.13 10-6 cm/s
CYP2D6
  IC50: > 5 µM
CYP2D6; [3]
  IC50: > 5 µM
CYP1A2
  IC50: > 5 µM
CYP1A2; [4]
  IC50: > 5 µM

## CN(C/C=C\CN)C[C@H]1O[C@@H](n2cnc3c(N)ncnc32)[C@@H](F)[C@@H]1O [Compound 2]
T. brucei SAM DC
  kinact/KI: 32700 M⁻¹ s⁻¹
[1]
  Perm.: 0.00 10-6 cm/s
CYP2D6
  IC50: > 5 µM
CYP2D6; [3]
  IC50: > 5 µM
CYP1A2
  IC50: > 5 µM
CYP1A2; [4]
  IC50: > 5 µM

## CN(C/C=C\CN)C[C@H]1O[C@@H](n2cnc3c(N)nc(Cl)nc32)[C@H](O)[C@@H]1O [Compound 3]
T. brucei SAM DC
  kinact/KI: 300 M⁻¹ s⁻¹
[1]; Example 12 chart
  Permeability: 0.36 10−6 cm/sec
[1]
  Perm.: 0.36 10-6 cm/s
CYP2D6
  IC50: > 5 µM
CYP2D6; [3]
  IC50: > 5 µM
CYP1A2
  IC50: > 5 µM
CYP1A2; [4]
  IC50: > 5 µM
